Laboratory results taken from US10131664B2 (Celgene Quanticel Research, Inc., priority 2013, dated 2018).

Key:
full-length human LSD1 = full-length human LSD1 (Homo sapiens (Human), UniProt O60341); assay: In vitro enzyme inhibition assay LSD-1 (TR-FRET); format: biochemical; settings: TR-FRET, 0.1 nM LSD1, 50 nM H3K4me1-biotin peptide, 2 μM FAD, pH7.3; read-out: LSD1 IC50
Protocol: This assay determines the ability of a test compound to inhibit LSD1 demethylase activity.
The enzymatic assay of LSD1 activity is based on Time Resolved-Fluorescence Resonance Energy Transfer (TR-FRET) detection.
The ability of the compounds disclosed herein to inhibit LSD1 activity was quantified and the respective IC50 value was determined. Table 5 provides the IC50 values of various substituted heterocyclic compounds disclosed herein.

THP-1 (AML) cells = assay: LSD1 CD11b cellular assay (flow cytometry); format: cell-based; settings: Homo sapiens, 96 h; CD11b expression in THP-1 (AML) cells, flow cytometry, 4 days incubation; read-out: Cellular IC50
In short: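 THP-1 AML cells treated with serially diluted compound (0.2% DMSO final) for 4 days at 37 °C, 5% CO2. CD11b expression measured by flow cytometry with DAPI staining; IC50 derived from percent CD11b-positive cells versus inhibitor concentration.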

Row | IC50 (full-length human LSD1) | IC50 (THP-1 (AML) cells) | Structure (SMILES)
1 | < 100 nM | < 100 nM | Cn1cnc2cc(-c3cnc(N4CCC(N)CC4)nc3-c3ccc(C#N)cc3)ccc21 [Example 122, 4-[2-(4-aminopiperidin-1-yl)-5-(1-methylbenzimidazol-5-yl)pyrimidin-4-yl]benzonitrile]
2 | < 100 nM | < 100 nM | COc1ccc(-c2cnc(N3CCC(N)CC3)nc2-c2ccc(C#N)cc2)cn1 [Example 123, 4-[2-(4-aminopiperidin-1-yl)-5-(6-methoxypyridin-3-yl)pyrimidin-4-yl]benzonitrile]
3 | < 100 nM | < 100 nM | N#Cc1ccc(-c2nc(N3CCC(N)CC3)ncc2-c2ccc(OCC3CC3)nc2)cc1 [Example 124, 4-[2-(4-aminopiperidin-1-yl)-5-[6-(cyclopropylmethoxy)pyridin-3-yl]pyrimidin-4-yl]benzonitrile]
4 | < 100 nM | < 100 nM | Cn1cnc2cc(-c3cnc(N4CCC(N)CC4)nc3-c3ccc(C#N)cc3)c(F)cc21 [Example 125, 4-[2-(4-aminopiperidin-1-yl)-5-(6-fluoro-1-methylbenzimidazol-5-yl)pyrimidin-4-yl]benzonitrile]
5 | < 100 nM | < 100 nM | Cn1cnc2cc(-c3cnc(N4CCC(N)CC4)nc3-c3ccc(C#N)cc3)c(F)c(F)c21 [Example 126, 4-[2-(4-aminopiperidin-1-yl)-5-(6,7-difluoro-1-methylbenzimidazol-5-yl)pyrimidin-4-yl]benzonitrile]
6 | < 100 nM | < 100 nM | Cn1cc2cc(-c3cnc(N4CCC(N)CC4)nc3-c3ccc(C#N)cc3)ccc2n1 [Example 128, 4-[2-(4-aminopiperidin-1-yl)-5-(2-methylindazol-5-yl)pyrimidin-4-yl]benzonitrile]
7 | < 100 nM | < 100 nM | Cn1cc2ccc(-c3cnc(N4CCC(N)CC4)nc3-c3ccc(C#N)cc3)cc2n1 [Example 129, 4-[2-(4-aminopiperidin-1-yl)-5-(2-methylindazol-6-yl)pyrimidin-4-yl]benzonitrile]
8 | < 100 nM | < 100 nM | Cn1cnc2cc(-c3cnc(N4CCC5CNCC5CC4)nc3-c3ccc(C#N)cc3)c(F)c(F)c21 (centres unmarked) [Example 130]
9 | < 100 nM | 100 to 1000 nM | N#Cc1ccc(-c2nc(N3CCC(N)CC3)ncc2-c2ccc(OCC(F)(F)F)nc2)cc1 [Example 131, 4-[2-(4-aminopiperidin-1-yl)-5-[6-(2,2,2-trifluoroethoxy)pyridin-3-yl]pyrimidin-4-yl]benzonitrile]
10 | < 100 nM | < 100 nM | Cn1cnc2cc(-c3cnc(N4CCC(N)CC4)nc3-c3ccc(C#N)c(F)c3)c(F)c(F)c21 [Example 132, 4-[2-(4-aminopiperidin-1-yl)-5-(6,7-difluoro-1-methylbenzimidazol-5-yl)pyrimidin-4-yl]-2-fluorobenzonitrile]
11 | < 100 nM | < 100 nM | Cn1cnc2cc(-c3cnc(N4CCC(N)CC4)nc3-c3ccc(C#N)c(F)c3)c(F)cc21 [Example 133, 4-[2-(4-aminopiperidin-1-yl)-5-(6-fluoro-1-methylbenzimidazol-5-yl)pyrimidin-4-yl]-2-fluorobenzonitrile]
12 | < 100 nM | < 100 nM | CN(C)c1ncc(-c2cnc(N3CCC(N)CC3)nc2-c2ccc(C#N)c(F)c2)cn1 [Example 134, 4-[2-(4-aminopiperidin-1-yl)-5-[2-(dimethylamino)pyrimidin-5-yl]pyrimidin-4-yl]-2-fluorobenzonitrile]
13 | < 100 nM | < 100 nM | N#Cc1ccc(-c2nc(N3CCC(N)CC3)ncc2-c2cnc(N3CCCC3)nc2)cc1F [Example 135, 4-[2-(4-aminopiperidin-1-yl)-5-(2-pyrrolidin-1-ylpyrimidin-5-yl)pyrimidin-4-yl]-2-fluorobenzonitrile]
14 | < 100 nM | < 100 nM | Cn1cnc2cc(-c3cnc(N4CCC(N)CC4)nc3-c3ccc(C#N)c(F)c3)cnc21 [Example 136, 4-[2-(4-aminopiperidin-1-yl)-5-(3-methylimidazo[4,5-b]pyridin-6-yl)pyrimidin-4-yl]-2-fluorobenzonitrile]
15 | < 100 nM | < 100 nM | Cn1cnc2cc(-c3cnc(N4CCC5(CCNC5)CC4)nc3-c3ccc(C#N)c(F)c3)cnc21 [Example 137, 4-[2-(2,8-diazaspiro[4.5]decan-8-yl)-5-(3-methylimidazo[4,5-b]pyridin-6-yl)pyrimidin-4-yl]-2-fluorobenzonitrile]
16 | < 100 nM | < 100 nM | Cc1nc2cc(-c3cnc(N4CCC(N)CC4)nc3-c3ccc(C#N)c(F)c3)ccc2n1C [Example 138, 4-[2-(4-aminopiperidin-1-yl)-5-(1,2-dimethylbenzimidazol-5-yl)pyrimidin-4-yl]-2-fluorobenzonitrile]
17 | < 100 nM | < 100 nM | Cn1nnc2cc(-c3cnc(N4CCC(N)CC4)nc3-c3ccc(C#N)c(F)c3)cnc21 [Example 139, 4-[2-(4-aminopiperidin-1-yl)-5-(3-methyltriazolo[4,5-b]pyridin-6-yl)pyrimidin-4-yl]-2-fluorobenzonitrile]
18 | < 100 nM | 100 to 1000 nM | CNc1ncc(-c2cnc(N3CCC(N)CC3)nc2-c2ccc(C#N)c(F)c2)cn1 [Example 140, 4-[2-(4-aminopiperidin-1-yl)-5-[2-(methylamino)pyrimidin-5-yl]pyrimidin-4-yl]-2-fluorobenzonitrile]
19 | < 100 nM | < 100 nM | N#Cc1ccc(-c2nc(N3CCC(N)CC3)ncc2-c2cnc(NC3CC3)nc2)cc1F [Example 141, 4-[2-(4-aminopiperidin-1-yl)-5-[2-(cyclopropylamino)pyrimidin-5-yl]pyrimidin-4-yl]-2-fluorobenzonitrile]
20 | < 100 nM | < 100 nM | N#Cc1ccc(-c2nc(N3CCC(N)CC3)ncc2-c2cnn(C3CCOCC3)c2)cc1F [Example 142, 4-[2-(4-aminopiperidin-1-yl)-5-[1-(oxan-4-yl)pyrazol-4-yl]pyrimidin-4-yl]-2-fluorobenzonitrile]
21 | < 100 nM | < 100 nM | Cn1cc2cc(-c3cnc(N4CCC(N)C4)nc3-c3ccc(C#N)c(F)c3)ccc2n1 (centres unmarked) [Example 143, 4-[2-(3-aminopyrrolidin-1-yl)-5-(2-methylindazol-5-yl)pyrimidin-4-yl]-2-fluorobenzonitrile]
22 | < 100 nM | 100 to 1000 nM | Cn1cc2cc(-c3cnc(N4CC5C(N)C5C4)nc3-c3ccc(C#N)c(F)c3)ccc2n1 (centres unmarked) [Example 144, 4-[2-(6-amino-3-azabicyclo[3.1.0]hexan-3-yl)-5-(2-methylindazol-5-yl)pyrimidin-4-yl]-2-fluorobenzonitrile]
23 | < 100 nM | < 100 nM | Cn1ncc2cc(-c3cnc(N4CCC(N)CC4)nc3-c3ccc(C#N)c(F)c3)cnc21 [Example 145, 4-[2-(4-aminopiperidin-1-yl)-5-(1-methylpyrazolo[3,4-b]pyridin-5-yl)pyrimidin-4-yl]-2-fluorobenzonitrile]
24 | < 100 nM | < 100 nM | N#Cc1ccc(-c2nc(N3CCC4CNCC4CC3)ncc2-c2ccc3scnc3c2)cc1 (centres unmarked) [Example 146, 4-[2-(2,3,3a,4,5,7,8,8a-octahydro-1H-pyrrolo[3,4-d]azepin-6-yl)-5-(1,3-benzothiazol-5-yl)pyrimidin-4-yl]benzonitrile]
25 | < 100 nM | < 100 nM | COc1nc(N2CCC(N)CC2)nc(-c2ccc(C#N)c(F)c2)c1-c1ccc2nn(C)cc2c1 [Example 147, 4-[2-(4-aminopiperidin-1-yl)-6-methoxy-5-(2-methyl-2H-indazol-5-yl)pyrimidin-4-yl]-2-fluorobenzonitrile]
